The results in this text go back to patent US9808441B2, “Dietary supplement containing alkaline electrolyte buffers” (priority 1999, dated 2017).

This data set is described as follows: pH of dietary/therapeutic supplements, alkaline minerals and supplement compositions. Type of data set: physicochemical. Particulars: for pH of alkaline mineral: lower value, 'and up depending upon the form' of the mineral. An excerpt: It is noted that wherein pH is referred to for a dry or non-liquid material, it means where the material is mixed with a liquid, such as in the body of a user.
When an individual takes any one of these supplements with the meal, the body begins the digestion process of the supplement and the meal and the body begins to try to eliminate resulting waste due to needed raise in pH and to buffer the system. The body will utilize any buffer that can be found within the food, supplement, and after that will begin to draw the alkaline minerals from within the system itself.

Setting [1] is: dietary or therapeutic supplement prior to combination with alkaline minerals (table).

Turning to `O=C1O[C@H]([C@@H](O)CO)C(O)=C1O` [Ascorbic Acid], the pH by setting is: under setting [1], 3.23; (supplement or ingredient alone, without alkaline electrolytes (text; typical/normal value)) “about 3.23”.
In the case of `N[C@H]1C(O)O[C@H](CO)[C@@H](O)[C@@H]1O` (stereo partly drawn) [Glucosamine], the pH under setting [1] stood at 5.5.
On the same count and under the same terms, under `O=C(O)c1cccnc1` [Niacin] stands 3.4; under `[Zn]` [Zinc], 3.5.
Consider `[Ca+2]` [calcium], for which the “pH of alkaline mineral” value is recorded as at least 8.28.
Take `[Mg+2]` [magnesium]: the “pH of alkaline mineral” value is at least 7.20.
On the same count and under the same terms, the result for `[K+]` [potassium] reads at least 9.69.
Vitamin E: under setting [1], the pH is 6.1.
